Assay results: ChEMBL document CHEMBL5465560, “Selectivity Literature for EUbOPEN Chemogenomic Library” (2024)

Tests used:
[1] = biological target: Phosphatidylinositol 4,5-bisphosphate 3-kinase catalytic subunit alpha isoform (Homo sapiens) (UniProt P42336); test: (§1) Selectivity interaction (KinomeScan (DiscoverX)) EUB0000666a PIK3CA; conditions: at 10 µM
[2] = system: Phosphatidylinositol 4,5-bisphosphate 3-kinase catalytic subunit alpha isoform (Homo sapiens), P42336 [C420R]; test: as §1; conditions: at 10 µM
[3] = system: Phosphatidylinositol 4,5-bisphosphate 3-kinase catalytic subunit alpha isoform (Homo sapiens), P42336 [E542K]; test: as §1; conditions: at 10 µM
[4] = system: Phosphatidylinositol 4,5-bisphosphate 3-kinase catalytic subunit alpha isoform (Homo sapiens), P42336 [E545A]; test: as §1; conditions: at 10 µM
[5] = system: Phosphatidylinositol 4,5-bisphosphate 3-kinase catalytic subunit alpha isoform (Homo sapiens), P42336 [E545K]; test: as §1; conditions: at 10 µM
[6] = system: Phosphatidylinositol 4,5-bisphosphate 3-kinase catalytic subunit alpha isoform (Homo sapiens), P42336 [H1047L]; test: as §1; conditions: at 10 µM
[7] = system: Phosphatidylinositol 4,5-bisphosphate 3-kinase catalytic subunit alpha isoform (Homo sapiens), P42336 [H1047Y]; test: as §1; conditions: at 10 µM
[8] = system: Phosphatidylinositol 4,5-bisphosphate 3-kinase catalytic subunit alpha isoform (Homo sapiens), P42336 [I800L]; test: as §1; conditions: at 10 µM
[9] = system: Phosphatidylinositol 4,5-bisphosphate 3-kinase catalytic subunit alpha isoform (Homo sapiens), P42336 [M1043I]; test: as §1; conditions: at 10 µM
[10] = system: Phosphatidylinositol 4,5-bisphosphate 3-kinase catalytic subunit alpha isoform (Homo sapiens), P42336 [Q546K]; test: as §1; conditions: at 10 µM
[11] = biological target: Angiopoietin-1 receptor (Homo sapiens) (UniProt Q02763); test: Selectivity interaction (Kinase panel (literature)) EUB0001199aCl TEK; conditions: at 1 µM
[12] = biological target: Maternal embryonic leucine zipper kinase (Homo sapiens) (UniProt Q14680); test: Selectivity interaction (KinomeScan (DiscoverX)) EUB0000695a MELK; conditions: at 100 nM
[13] = biological target: Serine/threonine-protein kinase 10 (Homo sapiens) (UniProt O94804); test: Selectivity interaction (KinomeScan (DiscoverX)) EUB0000695a STK10; conditions: at 100 nM
[14] = biological target: Mitogen-activated protein kinase kinase kinase kinase 1 (Homo sapiens) (UniProt Q92918); test: Selectivity interaction (Kinase panel (KiNativ target engagement assay in Jurkat cells)) EUB0001635a MAP4K1; assay type: cell-based; conditions: Selectivity number of off-targets 0.0, Selectivity number of targets 233.0, Source Knowledge https://www.sciencedirect.com/science/article/pii/S2451945619300674?via%3Dihub, at 1 µM
[15] = biological target: Bromodomain-containing protein 7 (Homo sapiens) (UniProt Q9NPI1); test: Selectivity interaction (Bromodomain panel (DSF asssay)) EUB0000270b BRD7
[16] = system: Tyrosine-protein kinase ABL1 (Homo sapiens), P00519 [T315I]; test: Selectivity interaction (KinomeScan (DiscoverX)) EUB0000229b ABL1; conditions: at 1 µM
[17] = biological target: Calcium/calmodulin-dependent protein kinase type II subunit delta (Homo sapiens) (UniProt Q13557); test: Selectivity interaction (KinomeScan (DiscoverX)) EUB0000229b CAMK2D; conditions: at 10 µM
[18] = system: Hepatocyte growth factor receptor (Homo sapiens), P08581 [M1250T]; test: (§2) Selectivity interaction (KinomeScan (DiscoverX)) EUB0000092b MET; conditions: at 10 µM
[19] = system: Hepatocyte growth factor receptor (Homo sapiens), P08581 [Y1235D]; test: as §2; conditions: at 10 µM
[20] = biological target: Hepatocyte growth factor receptor (Homo sapiens, UniProt P08581); test: as §2; conditions: at 10 µM
[21] = biological target: T1, Ephrin type-A receptor 8 (Homo sapiens) (UniProt P29322); test: Selectivity interaction (KinomeScan (DiscoverX)) EUB0000618a EPHA8; conditions: at 10 µM
T1 sequence (whole entry): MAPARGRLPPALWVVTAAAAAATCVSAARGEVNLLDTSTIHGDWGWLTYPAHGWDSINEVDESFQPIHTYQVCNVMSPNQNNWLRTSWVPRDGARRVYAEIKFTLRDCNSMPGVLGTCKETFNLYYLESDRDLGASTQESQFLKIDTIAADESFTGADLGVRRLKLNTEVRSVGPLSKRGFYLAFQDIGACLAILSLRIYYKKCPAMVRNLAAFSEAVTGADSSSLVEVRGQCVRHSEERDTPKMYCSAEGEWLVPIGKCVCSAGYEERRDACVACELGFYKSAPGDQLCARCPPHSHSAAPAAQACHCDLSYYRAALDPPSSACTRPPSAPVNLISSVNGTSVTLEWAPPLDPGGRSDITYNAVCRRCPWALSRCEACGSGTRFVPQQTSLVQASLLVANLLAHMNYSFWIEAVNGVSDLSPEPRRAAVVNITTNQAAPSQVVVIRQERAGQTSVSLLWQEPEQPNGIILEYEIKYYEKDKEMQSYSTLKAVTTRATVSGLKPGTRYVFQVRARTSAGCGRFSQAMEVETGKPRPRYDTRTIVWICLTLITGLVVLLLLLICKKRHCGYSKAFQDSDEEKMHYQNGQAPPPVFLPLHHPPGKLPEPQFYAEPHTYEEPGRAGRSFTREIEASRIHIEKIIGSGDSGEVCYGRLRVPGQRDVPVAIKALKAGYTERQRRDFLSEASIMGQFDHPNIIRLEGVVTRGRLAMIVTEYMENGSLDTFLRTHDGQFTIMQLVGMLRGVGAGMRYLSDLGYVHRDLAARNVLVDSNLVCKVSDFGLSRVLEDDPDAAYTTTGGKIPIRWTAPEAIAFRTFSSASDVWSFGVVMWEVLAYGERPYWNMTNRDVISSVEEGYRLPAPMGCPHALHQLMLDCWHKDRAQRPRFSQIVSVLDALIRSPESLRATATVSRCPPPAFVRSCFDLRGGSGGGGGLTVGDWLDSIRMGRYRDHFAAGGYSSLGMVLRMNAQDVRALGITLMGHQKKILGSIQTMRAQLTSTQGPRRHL

Chain of Bromodomain-containing protein 7 (Homo sapiens) (Q9NPI1 whole entry): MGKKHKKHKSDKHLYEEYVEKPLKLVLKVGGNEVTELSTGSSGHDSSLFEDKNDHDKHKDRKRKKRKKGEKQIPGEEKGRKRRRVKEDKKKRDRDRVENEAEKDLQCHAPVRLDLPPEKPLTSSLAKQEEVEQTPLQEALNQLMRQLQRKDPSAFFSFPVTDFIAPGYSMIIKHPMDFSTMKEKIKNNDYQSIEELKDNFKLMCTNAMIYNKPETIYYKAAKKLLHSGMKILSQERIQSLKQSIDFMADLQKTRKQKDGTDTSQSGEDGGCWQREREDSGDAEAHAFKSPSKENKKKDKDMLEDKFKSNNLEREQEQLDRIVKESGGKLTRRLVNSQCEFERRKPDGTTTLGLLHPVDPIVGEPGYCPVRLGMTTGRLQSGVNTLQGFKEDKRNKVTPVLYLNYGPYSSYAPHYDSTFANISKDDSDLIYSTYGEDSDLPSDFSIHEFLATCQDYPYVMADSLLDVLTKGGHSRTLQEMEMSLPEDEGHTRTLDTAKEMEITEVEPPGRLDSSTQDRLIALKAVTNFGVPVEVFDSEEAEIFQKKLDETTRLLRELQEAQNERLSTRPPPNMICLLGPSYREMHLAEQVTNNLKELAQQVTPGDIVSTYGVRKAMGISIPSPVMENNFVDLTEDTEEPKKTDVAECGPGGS
Chain of Phosphatidylinositol 4,5-bisphosphate 3-kinase catalytic subunit alpha isoform (Homo sapiens), P42336 [C420R] (P42336 whole entry C420R, canonical isoform): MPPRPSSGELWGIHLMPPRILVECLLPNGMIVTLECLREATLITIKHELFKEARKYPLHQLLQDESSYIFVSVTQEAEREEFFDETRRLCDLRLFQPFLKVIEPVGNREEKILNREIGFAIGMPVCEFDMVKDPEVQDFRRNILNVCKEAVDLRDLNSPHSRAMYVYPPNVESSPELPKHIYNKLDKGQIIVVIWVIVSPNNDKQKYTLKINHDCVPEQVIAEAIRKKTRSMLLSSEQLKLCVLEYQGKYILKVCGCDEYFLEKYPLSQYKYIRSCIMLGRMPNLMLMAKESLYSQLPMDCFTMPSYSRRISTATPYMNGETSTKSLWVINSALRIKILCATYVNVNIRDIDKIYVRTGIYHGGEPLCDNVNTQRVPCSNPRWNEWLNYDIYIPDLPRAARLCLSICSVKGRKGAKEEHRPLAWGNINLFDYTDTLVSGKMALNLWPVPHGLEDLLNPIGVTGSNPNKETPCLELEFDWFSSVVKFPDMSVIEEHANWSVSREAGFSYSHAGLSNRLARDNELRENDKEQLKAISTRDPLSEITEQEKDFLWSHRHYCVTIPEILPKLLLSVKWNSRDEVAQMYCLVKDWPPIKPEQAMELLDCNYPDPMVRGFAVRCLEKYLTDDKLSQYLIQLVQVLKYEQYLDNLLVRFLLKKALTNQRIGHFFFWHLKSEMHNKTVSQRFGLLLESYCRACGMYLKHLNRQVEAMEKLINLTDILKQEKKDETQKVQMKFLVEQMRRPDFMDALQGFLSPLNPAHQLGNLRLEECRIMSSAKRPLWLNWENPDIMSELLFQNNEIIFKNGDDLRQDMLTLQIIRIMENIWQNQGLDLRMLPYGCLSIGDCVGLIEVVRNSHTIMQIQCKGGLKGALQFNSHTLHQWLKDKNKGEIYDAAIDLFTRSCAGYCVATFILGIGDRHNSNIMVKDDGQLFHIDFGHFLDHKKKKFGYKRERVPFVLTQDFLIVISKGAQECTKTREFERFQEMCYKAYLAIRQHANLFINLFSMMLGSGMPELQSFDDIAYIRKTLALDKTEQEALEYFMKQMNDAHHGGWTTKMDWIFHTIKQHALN
Chain of Phosphatidylinositol 4,5-bisphosphate 3-kinase catalytic subunit alpha isoform (Homo sapiens), P42336 [H1047L] (P42336 whole entry H1047L, canonical isoform): as the sequence (P42336 whole entry C420R, canonical isoform) above, with R420C, H1047L counted along it
Chain of Phosphatidylinositol 4,5-bisphosphate 3-kinase catalytic subunit alpha isoform (Homo sapiens), P42336 [I800L] (P42336 whole entry I800L, canonical isoform): as the sequence (P42336 whole entry C420R, canonical isoform) above, with R420C, I800L counted along it
Chain of Phosphatidylinositol 4,5-bisphosphate 3-kinase catalytic subunit alpha isoform (Homo sapiens), P42336 [E545K] (P42336 whole entry E545K, canonical isoform): as the sequence (P42336 whole entry C420R, canonical isoform) above, with R420C, E545K counted along it

## O=C(NOC[C@H](O)CO)c1ccc(F)c(F)c1Nc1ccc(I)cc1F
[1]
  % of control: 56%
[2]
  % of control: 50%
[3]
  % of control: 57%
[4]
  % of control: 45%
[5]
  % of control: 53%
[6]
  % of control: 45%
[7]
  % of control: 57%
[8]
  % of control: 33%
[9]
  % of control: 42%
[10]
  % of control: 41%

## CN1Cc2nccc(-c3cn(C)nc3-c3ccc(F)cc3)c2C1=O
[11]
  % of inhibition: 1%

## Cc1cc(F)c(C(=O)Nc2cccc(-c3nncn3C(C)C)n2)cc1-n1cnc(C2CC2)c1
[12]
  % of control: 100%
[13]
  % of control: 100%

## C=CC(=O)Nc1ccc(C(=O)Nc2[nH]nc3c2CN(C(=O)N[C@H](CN(C)C)c2ccccc2)C3(C)C)cc1
[14]
  % of engagement: 4.4%

## Cc1cc(CN)cc(C)c1-c1ncn(C)c1-c1cncn1C
[15]
  dTM: -1.08 K

## COc1cc(N(C)c2ccnc3ccc(C(F)(F)F)cc23)cc(OC)c1OC
[16]
  % binding: 85%
[17]
  % binding: 95%

## CCC(=O)N1CCN(c2ccc(-n3c(=O)ccc4cnc5ccc(-c6cnc7ccccc7c6)cc5c43)cc2C(F)(F)F)CC1
[18]
  % of control: 79%
[19]
  % of control: 100%
[20]
  % of control: 84%

## O[C@H]1CC[C@H](Nc2ncc3nc(Nc4c(F)cc(F)cc4F)n([C@H]4CCOC4)c3n2)CC1
[21]
  % of control: 72%
